Literature values in patent publication US10512655B1, “Methods and compositions for the topical treatment of peripheral neuropathy” (Jeffrey S. Brooks, Inc., priority 2013, dated 2019).

Columns and labels:
[1] = system: patients suffering from DPN; conditions: topical, KY gel non-occlusive vehicle
[2] = system: patients with type 1 diabetes; conditions: oral, 300 mg/day over 24 months

Row | SMILES | pain relief [1] | effects upon peripheral nerve function or soluble markers of inflammation [2]
1 | CN1CC[C@]23c4c5ccc(O)c4O[C@H]2[C@@H](O)C=C[C@H]3[C@H]1C5 [morphine] | no pain relief | 
2 | C/C(=C(\CCOP(=O)(O)O)SC(=O)c1ccccc1)N(C=O)Cc1cnc(C)nc1N [benfotiamine, Benfotiamine] |  | no significant effects
